The record followed here is ChEMBL document CHEMBL3600287, “New heterocyclic compounds: Synthesis and antitrypanosomal properties” (Bioorg Med Chem, 2015).

SMILES strings stand for the structures.

Data set [1] concerns Trypanosoma brucei brucei. In words: Antitrypanosomal activity against Trypanosoma brucei brucei CMP infected in Swiss mouse assessed as parasite number level ul of blood at 50 umol/kg, ip administered as single dose measured on day 2. The class given is functional.
Data set [2] concerns Trypanosoma brucei brucei. Kind of data set: Antitrypanosomal activity against Trypanosoma brucei brucei CMP infected in Swiss mouse assessed as parasite number level ul of blood at 50 umol/kg, ip administered as single dose measured on day 3. The class given is functional.
Data set [3] has as its system Trypanosoma brucei brucei. Kind of data set: Antitrypanosomal activity against Trypanosoma brucei brucei CMP infected in Swiss mouse assessed as parasite number level ul of blood at 50 umol/kg, ip administered as single dose measured on day 4. Format: functional.
The subject of data set [4] is Trypanosoma brucei gambiense. In words: Antitrypanosomal activity against Trypanosoma brucei gambiense FeoITMAP/1893 assessed as inhibition of parasite growth after 72 hrs by resazurin dye based microplate reader analysis. Format: functional, organism-based. The settings on record: FeoITMAP/1893, 72 h. In general terms: Alamar Blue is a resazurin reagent that responds to reducing activity.

Data set [5] in a line: Cytotoxicity against mouse 3T6 cells assessed as inhibition of cell proliferation after 48 hrs by MTT assay. Format: cell-based. (Formazan colour is commonly taken as a measure of viable cells.)
Data set [6] is described as follows: Selectivity index, ratio of CC50 for mouse 3T6 cells to IC50 for Trypanosoma brucei gambiense strain FeoITMAP/1893. The class given is functional.
Data set [7] concerns Trypanosoma brucei brucei. Kind of data set: Antitrypanosomal activity against Trypanosoma brucei brucei CMP infected in Swiss mouse assessed as mean survival time at 100 umol/kg, ip administered as single dose. Format: functional.
For data set [8], the system named is Trypanosoma brucei brucei. Kind of data set: Antitrypanosomal activity against Trypanosoma brucei brucei CMP infected in Swiss mouse assessed as mean survival time at 50 umol/kg, ip administered as single dose. Format: functional.
Data set [9] concerns Trypanosoma brucei brucei. In words: Antitrypanosomal activity against Trypanosoma brucei brucei CMP infected in Swiss mouse assessed as cure rate at 100 umol/kg, ip administered as single dose. Format: functional.
In data set [10] the test system is Trypanosoma brucei brucei. In words: Antitrypanosomal activity against Trypanosoma brucei brucei CMP infected in Swiss mouse assessed as cure rate at 50 umol/kg, ip administered as single dose. The class given is functional.
Data set [11] relates to Mus musculus. Kind of data set: Toxicity against Swiss mouse infected with Trypanosoma brucei brucei CMP assessed as animal death at 100 umol/kg, ip administered as single dose. As to conditions: in vivo. The class given is organism-based.
The subject of data set [12] is Mus musculus. Kind of data set: Toxicity against Swiss mouse infected with Trypanosoma brucei brucei CMP assessed as animal death at 50 umol/kg, ip administered as single dose. The settings on record: in vivo. The class given is organism-based.
For data set [13], the system named is Trypanosoma brucei brucei. In words: Antitrypanosomal activity against Trypanosoma brucei brucei CMP infected in Swiss mouse assessed as parasite number level ul of blood at 100 umol/kg, ip administered as single dose measured on day 2. The class given is functional.
Data set [14] concerns Trypanosoma brucei brucei. Kind of data set: Antitrypanosomal activity against Trypanosoma brucei brucei CMP infected in Swiss mouse assessed as parasite number level ul of blood at 100 umol/kg, ip administered as single dose measured on day 3. The class given is functional.
Data set [15] deals with Trypanosoma brucei brucei. In words: Antitrypanosomal activity against Trypanosoma brucei brucei CMP infected in Swiss mouse assessed as parasite number level ul of blood at 100 umol/kg, ip administered as single dose measured on day 4. The class given is functional.
The nature of data set [16]: Cytotoxicity against monkey LLC-MK2 cells. The class given is cell-based, Macaca mulatta. The settings on record: rhesus monkey.
In data set [17] the test system is Trypanosoma brucei brucei. In words: Antitrypanosomal activity against Trypanosoma brucei brucei CMP infected in Swiss mouse assessed as parasite number level ul of blood at 100 umol/kg, ip administered as single dose measured on day 30. The class given is functional.

As to `CCOC(=O)c1cn(C2CC2)c2cc(N3CCN(Cc4ccccc4)CC3)c(F)cc2c1=O`, the Activity was 0 µL⁻¹ in [1]; 0 µL⁻¹ in [2]; 7 µL⁻¹ in data set [3]; 0% in data set [9]; 0% in data set [10]; “Non-toxic” in the data set on Mus musculus [11]. Moreover, the Activity result is “Non-toxic” in the data set with Mus musculus [12], 0 µL⁻¹ in data set [13], 0 µL⁻¹ in data set [14] and 0 µL⁻¹ in data set [15]. For the same molecule, in data set [4], the IC50 is 6.03 µM. The cytotoxic concentration (CC50) at 48 h in data set [5] was more than 30 µM. Also, the “Ratio CC50/IC50” value in [6] amounted to 5. The MST in data set [7] came out at 8.2 days; in data set [8], 6.1 days.

Take `CCOC(=O)c1cn(C2CC2)c2cc(N3CCN(CC45CC6CC(CC(C6)C4)C5)CC3)c(F)cc2c1=O`: the half-maximal inhibitory concentration (IC50) in [4] was determined as 23.1 µM. Besides, in [5], the CC50 at 48 h was 27.8 µM. For the same molecule, the “Ratio CC50/IC50” value in data set [6] is on record as 1.2.

Consider `Fc1ccc2[nH]c(-c3ccc(Nc4ccnc5cc(Cl)ccc45)cc3)nc2c1`, for which the Activity was 13.7 µL⁻¹ in [1]; 117 µL⁻¹ in data set [2]; 28317 µL⁻¹ in data set [3]; 0% in data set [9]; 0% in [10]; “Non-toxic” with Mus musculus [11]. Moreover, the Activity result with Mus musculus [12] was “Non-toxic”; in data set [13], 0 µL⁻¹; in data set [14] it was 97 µL⁻¹; in data set [15] it was 31590 µL⁻¹. The concentration for half-maximal inhibition (IC50) in data set [4] is 1.98 µM. This molecule also had a CC50 in data set [16] of 10.6 µM. Besides, the “Ratio CC50/IC50” value in [6] was found to be 5.3. The MST worked out at 1.2 days in data set [7] and 1.1 days in [8].

Consider `Clc1ccc2c(Nc3ccc(-c4nc5ccccc5[nH]4)cc3)ccnc2c1`, for which the IC50 in data set [4] stood at 3.79 µM. This molecule also yielded a 50% cytotoxic concentration (CC50) in [16] of 15.5 µM. Moreover, the “Ratio CC50/IC50” value in [6] is given as 4.1.

Take `N=C(N)c1ccc(OCCCCCOc2ccc(C(=N)N)cc2)cc1.O=S(=O)(O)CCO`: the Activity is 0 µL⁻¹ in [17]; 100% in data set [9]; “Non-toxic” in the data set with Mus musculus [11]; 0 µL⁻¹ in [14]; 0 µL⁻¹ in [15]. Moreover, the MST in [7] is more than 30 days.

`CCN(CC)CCCC(C)Nc1ccnc2cc(Cl)ccc12.O=P(O)(O)O.O=P(O)(O)O` (stereo not drawn) [CHLOROQUINE PHOSPHATE]: in [7], the MST turned out to be 0 days. Besides, the Activity is 0% in data set [9]; “Non-toxic” in the data set on Mus musculus [11]; 23.7 µL⁻¹ in data set [13]; 498 µL⁻¹ in data set [14]; 42607 µL⁻¹ in [15].

`CCOC(=O)c1cn(C2CC2)c2cc(N3CCNCC3)c(F)cc2c1=O` [CIPROFLOXACIN ETHYL ESTER]: the half-maximal inhibitory concentration (IC50) in [4] is 26 µM. Further, the CC50 at 48 h in data set [5] was more than 30 µM. Besides, the “Ratio CC50/IC50” value in data set [6] is recorded as 1.2.

On to `O=C(O)c1cn(C2CC2)c2cc(N3CCNCC3)c(F)cc2c1=O` [CIPROFLOXACIN], for which, in data set [4], the IC50 worked out at 52 µM.

With `N=C(N)c1ccc(OCCCCCOc2ccc(C(=N)N)cc2)cc1` [PENTAMIDINE], the 50% inhibitory concentration (IC50) in data set [4] turned out to be 0.0049 µM.

As usually defined, the IC50 is the concentration that inhibits the measured activity by half. The CC50 is the concentration that lowers cell viability or growth by half.
